According to ChEMBL document CHEMBL1649315, “Extended-spectrum cephalosporinase in Acinetobacter baumannii” (Antimicrob Agents Chemother, 2010):
Converted amounts (≈) assume the structure as drawn.

Assays:
Acinetobacter baumannii [1] = assay: Antimicrobial activity against Acinetobacter baumannii KI by Etest method; type: functional
Acinetobacter baumannii [2] = assay: Antimicrobial activity against Acinetobacter baumannii CIP70.10 by Etest method; type: functional
Acinetobacter baumannii [3] = assay: Antimicrobial activity against Acinetobacter baumannii AYE expressing VEB-1 gene by Etest method; type: functional
Escherichia coli [4] = assay: Antimicrobial activity against Escherichia coli TOP10 harboring pADC-33 plasmid by Etest method; type: functional
Escherichia coli [5] = assay: Antimicrobial activity against Escherichia coli TOP10 harboring pADC-50 plasmid by Etest method; type: functional
Escherichia coli [6] = assay: Antimicrobial activity against Escherichia coli TOP10 harboring pADC-11 plasmid by Etest method; type: functional
Escherichia coli [7] = assay: Antimicrobial activity against Escherichia coli TOP10 harboring pADC-33 plasmid with entire blaAmpC gene by Etest method; type: functional
Escherichia coli [8] = assay: Antimicrobial activity against Escherichia coli TOP10 harboring pADC-11 plasmid with entire blaAmpC gene by Etest method; type: functional
Escherichia coli [9] = assay: Antimicrobial activity against Escherichia coli TOP10 harboring pADC-33 plasmid with entire blaAmpC gene with alanine residue deletion at 215 position by Etest method; type: functional
Escherichia coli [10] = assay: Antimicrobial activity against Escherichia coli TOP10 harboring pADC-11 plasmid carrying entire blaAmpC gene with alanine residue insertion at 215 position by Etest method; type: functional
Escherichia coli [11] = assay: Antimicrobial activity against Escherichia coli TOP10 harboring pADC-33 plasmid carrying entire blaAmpC gene with alanine residue deletion at 215 position and R210P substitution by Etest method; type: functional
Escherichia coli [12] = assay: Antimicrobial activity against Escherichia coli TOP10 harboring pADC-11 plasmid carrying entire blaAmpC gene with alanine residue insertion at 215 position and R210P substitution by Etest method; type: functional
Escherichia coli [13] = assay: Antimicrobial activity against Escherichia coli TOP10 harboring pTOPO plasmid by Etest method; type: functional
Acinetobacter baumannii [14] = assay: Antimicrobial activity against Acinetobacter baumannii KI by Etest method in presence of Tazobactam; type: functional
Acinetobacter baumannii [15] = assay: Antimicrobial activity against Acinetobacter baumannii CIP70.10 by Etest method in presence of Tazobactam; type: functional
Acinetobacter baumannii [16] = assay: Antimicrobial activity against Acinetobacter baumannii AYE expressing VEB-1 gene by Etest method in presence of Tazobactam; type: functional
Escherichia coli [17] = assay: Antimicrobial activity against Escherichia coli TOP10 harboring pADC-33 plasmid by Etest method in presence of Tazobactam; type: functional
Escherichia coli [18] = assay: Antimicrobial activity against Escherichia coli TOP10 harboring pADC-50 plasmid by Etest method in presence of Tazobactam; type: functional
Escherichia coli [19] = assay: Antimicrobial activity against Escherichia coli TOP10 harboring pADC-11 plasmid by Etest method in presence of Tazobactam; type: functional
Escherichia coli [20] = assay: Antimicrobial activity against Escherichia coli TOP10 harboring pADC-33 plasmid carrying entire blaAmpC gene by Etest method in presence of Tazobactam; type: functional
Escherichia coli [21] = assay: Antimicrobial activity against Escherichia coli TOP10 harboring pADC-11 plasmid carrying entire blaAmpC gene by Etest method in presence of Tazobactam; type: functional
Escherichia coli [22] = assay: Antimicrobial activity against Escherichia coli TOP10 harboring pADC-33 plasmid carrying entire blaAmpC gene with alanine residue deletion at 215 position by Etest method in presence of Tazobactam; type: functional
Escherichia coli [23] = assay: Antimicrobial activity against Escherichia coli TOP10 harboring pADC-11 plasmid carrying entire blaAmpC gene with alanine residue insertion at 215 position by Etest method in presence of Tazobactam; type: functional
Escherichia coli [24] = assay: Antimicrobial activity against Escherichia coli TOP10 harboring pADC-33 plasmid carrying entire blaAmpC gene with alanine residue deletion at 215 position and R210P substitution by Etest method in presence of Tazobactam; type: functional
Escherichia coli [25] = assay: Antimicrobial activity against Escherichia coli TOP10 harboring pADC-11 plasmid carrying entire blaAmpC gene with alanine residue deletion at 215 position and R210P substitution by Etest method in presence of Tazobactam; type: functional
Escherichia coli [26] = assay: Antimicrobial activity against Escherichia coli TOP10 harboring pTOPO plasmid by Etest method in presence of Tazobactam; type: functional
Acinetobacter baumannii [27] = assay: Ratio of Kcat to Km for Acinetobacter baumannii ADC-33 beta-lactamase to Kcat to Km for Acinetobacter baumannii ADC-11 beta-lactamase

Compound: CCN1CCN(C(=O)N[C@@H](C(=O)N[C@@H]2C(=O)N3[C@@H]2SC(C)(C)[C@@H]3C(=O)O)c2ccccc2)C(=O)C1=O [PIPERACILLIN]
- MIC (Acinetobacter baumannii [1]): > 256 µg/mL
- MIC (Acinetobacter baumannii [2]): 16 µg/mL (≈ 30.9 µM)
- MIC (Acinetobacter baumannii [3]): > 256 µg/mL
- MIC (Escherichia coli [4]): 32 µg/mL (≈ 61.8 µM)
- MIC (Escherichia coli [5]): 16 µg/mL (≈ 30.9 µM)
- MIC (Escherichia coli [6]): 8 µg/mL (≈ 15.5 µM)
- MIC (Escherichia coli [7]): > 256 µg/mL
- MIC (Escherichia coli [8]): > 256 µg/mL
- MIC (Escherichia coli [9]): > 256 µg/mL
- MIC (Escherichia coli [10]): > 256 µg/mL
- MIC (Escherichia coli [11]): > 256 µg/mL
- MIC (Escherichia coli [12]): > 256 µg/mL
- MIC (Escherichia coli [13]): 1 µg/mL (≈ 1.93 µM)
- MIC (Acinetobacter baumannii [14]): 128 µg/mL
- MIC (Acinetobacter baumannii [15]): 4 µg/mL
- MIC (Acinetobacter baumannii [16]): 128 µg/mL
- MIC (Escherichia coli [17]): 32 µg/mL
- MIC (Escherichia coli [18]): 16 µg/mL
- MIC (Escherichia coli [19]): 8 µg/mL
- MIC (Escherichia coli [20]): > 256 µg/mL
- MIC (Escherichia coli [21]): 128 µg/mL
- MIC (Escherichia coli [22]): 256 µg/mL
- MIC (Escherichia coli [23]): 256 µg/mL
- MIC (Escherichia coli [24]): 128 µg/mL
- MIC (Escherichia coli [25]): 256 µg/mL
- MIC (Escherichia coli [26]): 1 µg/mL
- kcat/Km (Acinetobacter baumannii [27]): 1.2e+06 M⁻¹ s⁻¹
